Measured values taken from EP0675728B1, “PRODUCTS AND METHODS FOR IMPROVING KE[…] TO THE DERMIS” (STATE OF OREGON BY AND THROUGH OREGON STATE BOARD OF HIGHER …, priority 1992, dated 1994).

Legend:
keratinocytes = settings: just-subconfluent keratinocyte cultures, 60 minutes' incubation; BM165 mAb 50 µg/mL, 10-mM EDTA
Method: Cells were grown in Keratinocyte Growth Medium (KGM) containing 0.15 mM CaCl2 and subcultured according to the manufacturer's instructions (Clonetics). For most immunocytochemical experiments, first- or second-passage cells were grown in glass or plastic chamber slides (Lab-Tek) or on glass cover slips to approximately 80 percent confluency. For large-scale collection, spent-media cells were grown in 150-cm^2 tissue culture dishes and fed three times per week with 15 mL fresh media.
Keratinocytes were grown to near confluence and either fixed immediately (FIGS. 4B and 4D) or washed with PBS and incubated with BM165 mAb (50 µg/mL) followed by 5-nm gold-conjugated secondary antibody prior to fixation (FIGS. 4A and 4C).
To further pursue these observations, just-subconfluent keratinocyte cultures were separately incubated with purified BM165 mAb for 10 and 60 minutes. After incubation, the cultures were photographed (FIGS. 5A-F). Purified mAbs in PBS, PBS alone, or 10-mM EDTA were incubated with keratinocytes in parallel. Parallel cultures were also incubated with anti-type-VII monoclonal IgG in PBS for the corresponding same length of time.

O=C(O)CN(CCN(CC(=O)O)CC(=O)O)CC(=O)O [EDTA]
rounding and detachment of the keratinocytes (keratinocytes): extensive rounding and detachment | rounding and detachment of dermal fibroblasts (Dermal fibroblasts): rounded and detached

COc1cc2c(c(OC)c1OC)-c1ccc(OC)c(=O)cc1[C@@H](NC(C)=O)CC2 [colchicine]
secretion of kalinin into the medium (secretion of kalinin): inhibited
